Source: ChEMBL document CHEMBL3638596, “Protease inhibitors” (2014)

Legend:
[1] = molecular target: Cathepsin S (Homo sapiens, UniProt P25774); assay: Enzyme Assay: The assay uses baculovirus-expressed human cathepsin S and the boc-Val-Leu-Lys-AMC fluorescent substrate available from Bachem in a 384 well plate format, in which 7 test compounds can be tested in parallel with a positive control comprising a known cathepsin S inhibitor comparator. […] 2 μl of each 10 mM test compound is added to a separate well on row A, columns 1-10. Add 90 μl assay buffer containing 1 mM DTT and 2 nM cathepsin S to each well of rows B-H and 180 μl to row A.
[2] = molecular target: T1, Cathepsin K (Homo sapiens, UniProt P43235); assay: Enzyme Assay: Standard assay conditions for the determination of kinetic constants used a fluorogenic peptide substrate, typically H-D-Ala-Leu-Lys-AMC, and were determined in either 100 mM Mes/Tris, pH 7.0 containing 1 mM EDTA and 10 mM 2-mercaptoethanol or 100 mM Na phosphate, imM EDTA, 0.1% PEG4000 pH 6.5 or 100 mM Na acetate, pH 5.5 containing 5 mM EDTA and 20 mM cysteine, in each case optionally with […] as stabiliser. The enzyme concentration used was 5 nM. The stock substrate solution was prepared at 10 mM in DMSO. Screens were carried out at a fixed substrate concentration of 60 μM and detailed kinetic studies with doubling dilutions of substrate from 250 μM. The total DMSO concentration in the assay was kept below 3%. All assays were conducted at ambient temperature. Product fluorescence (excitation at 390 nm, emission at 460 nm) was monitored with a Labsystems Fluoroskan Ascent fluorescent plate reader.
T1 sequence (P43235 whole entry): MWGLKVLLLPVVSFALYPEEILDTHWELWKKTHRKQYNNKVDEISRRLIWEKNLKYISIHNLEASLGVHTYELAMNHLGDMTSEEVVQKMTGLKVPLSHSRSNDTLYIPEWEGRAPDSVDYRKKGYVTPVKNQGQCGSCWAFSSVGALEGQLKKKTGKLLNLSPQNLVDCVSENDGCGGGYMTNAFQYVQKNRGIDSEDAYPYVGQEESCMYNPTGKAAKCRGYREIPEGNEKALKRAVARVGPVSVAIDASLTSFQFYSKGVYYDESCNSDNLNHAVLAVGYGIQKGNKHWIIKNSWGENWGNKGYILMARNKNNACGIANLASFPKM

Cathepsin S, sequence (P25774 whole entry): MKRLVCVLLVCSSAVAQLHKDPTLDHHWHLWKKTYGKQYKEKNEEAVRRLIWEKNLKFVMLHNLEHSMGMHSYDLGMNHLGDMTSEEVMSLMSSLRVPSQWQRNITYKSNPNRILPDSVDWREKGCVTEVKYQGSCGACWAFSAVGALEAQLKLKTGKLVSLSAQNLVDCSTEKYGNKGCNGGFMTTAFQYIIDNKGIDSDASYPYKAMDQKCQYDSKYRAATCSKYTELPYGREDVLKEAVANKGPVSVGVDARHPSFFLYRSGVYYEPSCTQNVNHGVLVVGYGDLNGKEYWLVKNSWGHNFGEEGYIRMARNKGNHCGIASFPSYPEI

Ki [1]: 2.9 µM
Ki [2]: 0.0006 µM
Structure (SMILES): C#C[C@@H]1CN(C(=O)[C@@H](NC(=O)c2ccc(-c3nc(N4CCN(C)CC4)sc3F)cc2)C2CCCC2)[C@@H]2C(=O)CO[C@H]12
